From paper PMC10918664, “New Triazole-Based Potent Inhibitors of Human Factor XIIa as Anticoagulants” (ACS Omega, 2024)
Read-outs that look alike come from different tables or passages of the source.

Experiments:
human FXIIa = target: T1, human FXIIa (Homo sapiens, UniProt P00748); test: Direct inhibition of human FXIIa, chromogenic substrate hydrolysis assay; conditions: for HS (Hill slope) / ΔY (%) efficacy of inhibition: pH 7.4, 37 °C; for subclass of inhibitor based on selectivity studies: versus thrombin, FIXa, FXa, FXIa
T1 sequence (P00748 373-615 limits assumed): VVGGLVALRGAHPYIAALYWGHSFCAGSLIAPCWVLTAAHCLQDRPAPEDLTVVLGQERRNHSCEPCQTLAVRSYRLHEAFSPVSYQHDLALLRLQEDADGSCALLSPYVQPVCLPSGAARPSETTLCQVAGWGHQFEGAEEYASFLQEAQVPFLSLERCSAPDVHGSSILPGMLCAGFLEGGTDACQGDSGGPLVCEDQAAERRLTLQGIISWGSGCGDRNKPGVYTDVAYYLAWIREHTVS
T1 sequence (P00748 20-372 partner limits assumed): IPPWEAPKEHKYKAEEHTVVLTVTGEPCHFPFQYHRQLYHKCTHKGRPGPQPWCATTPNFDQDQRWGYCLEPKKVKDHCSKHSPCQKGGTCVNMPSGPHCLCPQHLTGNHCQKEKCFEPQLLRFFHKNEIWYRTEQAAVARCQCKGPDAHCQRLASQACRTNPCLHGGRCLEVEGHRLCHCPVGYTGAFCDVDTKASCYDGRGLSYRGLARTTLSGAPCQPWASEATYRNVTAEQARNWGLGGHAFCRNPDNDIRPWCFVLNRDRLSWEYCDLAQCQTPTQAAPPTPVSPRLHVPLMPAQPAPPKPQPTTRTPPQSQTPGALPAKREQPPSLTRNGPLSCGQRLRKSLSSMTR
Protocol: The slope of the resulting line corresponds to the residual enzyme activity, and the change in residual enzyme activity, relative to the concentration of the inhibitor, is plotted and fitted using the logistic eq 1. […] In this setup, each well of the 96-well microplate contained 175 μL of pH 7.4 TrisHCl buffer, to which 5 μL of potential inhibitors (or vehicle) and 5 μL of human FXIIa (stock concentration: 200 nM) were added sequentially. […] The relative residual FXIIa activity at each inhibitor concentration was computed by comparing the FXIIa activity in the absence and presence of the inhibitor. To obtain the potency (IC50) and efficacy (ΔY) of inhibition, the dose dependence of residual FXIIa activity was fitted to the logistic eq 1.

FXIa = target: T2, FXIa (Homo sapiens, UniProt P03951); test: Inhibition of FXIa, chromogenic substrate hydrolysis assay; format: biochemical; conditions: for selectivity index (IC50 enzyme/IC50 FXIIa): FXIa over FXIIa; for IC50: FXIa, pH 7.4, 37 °C
T2 construct: purchased Haematologic Technologies (Essex Junction, VT); host or cells: human plasma
T2 sequence (P03951 388-625 limits assumed): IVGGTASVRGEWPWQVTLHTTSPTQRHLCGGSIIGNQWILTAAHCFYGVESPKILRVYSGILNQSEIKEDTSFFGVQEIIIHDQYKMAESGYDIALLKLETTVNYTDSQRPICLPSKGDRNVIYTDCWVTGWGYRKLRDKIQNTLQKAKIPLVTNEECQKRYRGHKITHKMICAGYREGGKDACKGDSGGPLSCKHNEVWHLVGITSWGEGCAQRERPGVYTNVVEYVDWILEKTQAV
T2 sequence (P03951 19-387 partner limits assumed): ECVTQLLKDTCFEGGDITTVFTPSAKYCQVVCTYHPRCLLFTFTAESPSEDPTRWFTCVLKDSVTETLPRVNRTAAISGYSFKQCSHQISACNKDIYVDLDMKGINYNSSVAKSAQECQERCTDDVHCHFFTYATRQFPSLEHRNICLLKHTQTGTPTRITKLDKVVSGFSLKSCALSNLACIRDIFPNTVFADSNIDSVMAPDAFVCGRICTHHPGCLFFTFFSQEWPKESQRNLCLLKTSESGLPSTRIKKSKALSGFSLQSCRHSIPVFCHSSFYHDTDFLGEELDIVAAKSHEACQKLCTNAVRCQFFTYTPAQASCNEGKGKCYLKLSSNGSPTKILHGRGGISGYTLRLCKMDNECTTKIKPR
Protocol: (§1) The selectivity was evaluated against thrombin and factors IXa, Xa, and XIa.
(§2) These assays were performed by using substrates and conditions appropriate for the enzyme being studied. To conduct selectivity analysis, various concentrations of the inhibitors were utilized, and the residual enzyme activity was assessed at each concentration. […] This allowed for the determination of the corresponding IC50 and efficacy of the enzyme–inhibitor complex. The KM of the chromogenic substrate with its enzyme was employed to ascertain the concentration of the chromogenic substrate used in the inhibition studies.

thrombin (factor IIa) = target: T3, thrombin (factor IIa) (Homo sapiens, UniProt P00734); test: Inhibition of thrombin, chromogenic substrate hydrolysis assay; format: biochemical; conditions: for HS (Hill slope) / ΔY (%) / IC50: thrombin; for selectivity index (IC50 enzyme/IC50 FXIIa): thrombin over FXIIa; for IC50: pH 7.4, 37 °C
T3 construct: The prothrombinase complex converts prothrombin (FII) to thrombin (FIIa); purchased Haematologic Technologies (Essex Junction, VT); host or cells: human plasma
Protocol: as §1, §2

human plasma = test: Activated partial thromboplastin time (APTT) clotting assay; format: biochemical; conditions: human plasma; read-out: APTT (EC×1.5), effective concentration to double the clotting time
Protocol: The APTT assay is employed to assess the impact of a new potential anticoagulant on clotting driven by the contact/intrinsic pathway, involving FIXa, FXIa, and FXIIa. Conversely, the PT assay is utilized to gauge the impact of the new potential anticoagulant on the extrinsic pathway of coagulation, which includes FVIIa. […] In the PT assay, thromboplastin-D was created by adding 4 mL of distilled water, and the resulting mixture was warmed to 37 °C. […] Upon the addition of 200 μL of prewarmed thromboplastin-D reagent, the clotting time was recorded. In the APTT assay, 90 μL of citrated human plasma was combined with 10 μL of the molecule of interest (or the vehicle) and 100 μL of prewarmed 0.2% ellagic acid. Following a 4 min incubation at 37 °C, clotting was initiated by introducing 100 μL of prewarmed 0.025 M CaCl2, and the clotting time was recorded. In both assays, approximately nine or more concentrations of molecules were employed to generate concentration vs effect profiles. The data were then plotted against a quadratic trendline, enabling the estimation of the concentration required to double the clotting time. Clotting times were similarly measured using 10 μL of highly purified water (negative control). The positive controls used in APTT and PT assays were (1) UFH, antithrombin activator; (2) argatroban, a clinically used thrombin inhibitor; (3) rivaroxaban, a clinically used FXa inhibitor; and (4) C6B7, a monoclonal antibody FXIIa inhibitor.

| SMILES | IC50 (human FXIIa) [nM] | HS (Hill slope) (human FXIIa; human FXIIa) | ΔY (%) efficacy of inhibition (human FXIIa; human FXIIa) [%] | selectivity index (IC50 enzyme/IC50 FXIIa) (FXIa) | IC50 (FXIa) [nM] | subclass of inhibitor based on selectivity studies (human FXIIa) | HS (Hill slope) (thrombin (factor IIa)) | ΔY (%) (thrombin (factor IIa)) | selectivity index (IC50 enzyme/IC50 FXIIa) (thrombin (factor IIa)) | IC50 (thrombin (factor IIa)) [nM] | further results |
| --- | --- | --- | --- | --- | --- | --- | --- | --- | --- | --- | --- |
| COC(=O)c1nc(N)n(C(=O)c2ccc(Cl)cc2)n1 [compound 19] | 7800 | 0.8 ± 0.1 | 102 ± 5 | – | – | – | – | – | – | – | fold decrease in FXIIa inhibition potency (human FXIIa; relative to inhibitor 7 (chlorine ortho to para)): ~4.6 fold |
| COC(=O)c1nc(N)n(C(=O)c2ccccc2Br)n1 [compound 20] | 80 ± 10 | 0.8 ± 0.1 | 76 ± 5 | >625 | > 50000 | dual inhibitors of FXIIa as well as thrombin | 0.9 ± 0.1 | 113 ± 8 | 1.13 | 90 ± 20 | – |
| COC(=O)c1nc(N)n(C(=O)c2ccc(Br)cc2)n1 [compound 21] | 900 ± 100 | 0.5 ± 0.02 | 109 ± 2 | >55.56 | > 50000 | dual inhibitors of FXIIa as well as thrombin | 0.5 ± 0.02 | 112 ± 10 | 1.00 | 900 ± 200 | fold decrease in FXIIa inhibition potency (human FXIIa; relative to inhibitor 20 (bromine ortho to para)): ~11.3 fold |
| COC(=O)c1nc(N)n(C(=O)c2ccc(F)cc2)n1 [compound 22] | 32 ± 8 | 0.8 ± 0.1 | 74 ± 7 | >1562.50 | > 50000 | more specific inhibitors of FXIIa | 1.2 ± 0.2 | 118 ± 7 | 9.38 | 300 ± 50 | EC50 (human plasma): 25000 to 75000 nM; IC50 (human FXIIa; human FXIIa, Tris–HCl buffer pH 7.4, 37 °C): 32 ± 8 nM; fold increase in FXIIa inhibition potency (human FXIIa; relative to inhibitor 9): 7.5 fold; fold more potent FXIIa inhibitor (human FXIIa; than inhibitor RA): 3.4 fold |
| Cc1cccc(C(=O)n2cnnc2N)c1 [compound 24] | – | – | – | – | > 50000 | – | – | – | – | – | inhibition at 50 µM (thrombin (factor IIa); read-out: inhibition of thrombin at 50 μM): 43% |
| Cc1cc(C)cc(C(=O)n2cnnc2N)c1 [compound 26] | – | – | – | – | – | – | – | – | – | > 50000 | – |
| COc1cc(OC)cc(C(=O)n2cnnc2N)c1 [compound 30] | – | – | – | – | – | – | 1.0 ± 0.3 | 53 ± 16 | – | 250 ± 140 | – |
| CCOC(=O)c1nc(N)n(C(=O)c2ccccc2)n1 [compound 31] | 7900 | 0.9 ± 0.1 | 91 ± 9 | – | – | – | – | – | – | – | – |
| COC(=O)c1nc(N)n(C(C)=O)n1 [compound 32] | 6300 | 0.9 ± 0.2 | 67 ± 8 | – | – | – | – | – | – | – | – |
